From publication PMC7181695, “Targeting the interaction between RNA-binding protein HuR and FOXQ1 suppresses breast cancer invasion and metastasis” (Communications Biology, 2020)

Target: T1, HuR (Hu antigen R, ELAVL1) (Homo sapiens, UniProt Q15717)
T1 construct: full-length HuR (FP, SPR); HuR RRM1/2 (AlphaLISA, SPR)
Assay: FP competition with fluorescein-labeled ARE-Msi1 RNA; SPR direct binding to immobilized HuR; AlphaLISA (Ki […]); CETSA in MDA-MB-231 cells

T1 sequence (Q15717 2-326): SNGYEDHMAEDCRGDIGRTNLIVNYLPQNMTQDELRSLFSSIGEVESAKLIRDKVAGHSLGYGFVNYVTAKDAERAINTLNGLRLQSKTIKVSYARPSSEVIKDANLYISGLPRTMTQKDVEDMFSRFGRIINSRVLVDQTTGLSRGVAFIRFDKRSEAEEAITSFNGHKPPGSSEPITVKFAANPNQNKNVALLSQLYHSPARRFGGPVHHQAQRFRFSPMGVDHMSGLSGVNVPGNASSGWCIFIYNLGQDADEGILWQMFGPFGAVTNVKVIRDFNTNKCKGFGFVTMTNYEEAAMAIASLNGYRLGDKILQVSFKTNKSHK

Ki: 830 nM
SMILES: CC(C)(C)c1ccc(S(=O)(=O)Nc2ccc3sc(/C=C/C(=O)NO)cc3c2)cc1 [KH-3, (E)-3-(5-((4-(tert-Butyl)phenyl)sulfonamido)benzo[b]thiophen-2-yl)-N-hydroxyacrylamide]
